These results are taken from patent US9382295B2, “Cyclic depsipeptide compounds and their uses” (Cypralis Limited, priority 2012, dated 2016).

The target in one series is cyclophilin D (Cyp D) (Homo sapiens, UniProt P30405). The series is described as follows: Protease-free PPIase assay, cyclophilin D. It counts as biochemical. Here is the method:
(§1) The protease-free PPIase assay measures the rate of cis to trans conversion of a peptide substrate catalyzed by the enzymes cyclophilin A and cyclophilin D. Addition of a cyclophilin inhibitor (e.g., a test compound) slows the catalyzed rate and a Ki value is obtained. […] 35 mM HEPES pH 7.8, filtered through a 0.2 μm filter. 50 μM DTT was added prior to use each day and then the buffer was stored on ice. Succinimide-[…]) (from Bachem AG, L-1400), 20 mg/ml prepared in 0.5 M LiCl in trifluoroethanol. All readings were taken with an Agilent 8453 Spectrophotometer which consists of a cuvette holder, stirrer and chiller to maintain a stirred cuvette temperature of 10.0±0.1° C. The temperature is monitored by the use of temperature probe. […] The inhibitor was diluted in 100% DMSO, and then added to the assay to a maximum final concentration of 0.5% DMSO in the assay. A blank spectrum was obtained, then 3 μL of enzyme was added (2 nM final concentration) and then 3 μL substrate (60 μM final concentration) added. The absorbance was measured at 330 nm for 300 s or 500 s for blank runs (NOTE: the substrate must be added in one quick injection and the measurements started immediately to minimize mixing errors). A first order rate equation was fitted to the absorbance data, for each concentration of inhibitor, to obtain the rate constant (the first 10 to 15 seconds were excluded as mixing causes errors in this portion of curve). The catalytic rate was calculated from the enzymatic rate constant minus the background rate constant. An exponential curve was generated using the catalytic rate constants versus the inhibitor concentration to obtain the Ki value for the inhibitor. The Ki value is indicative of the binding affinity between the test compound and cyclophilin A or cyclophilin D.

Series [1] in a line: Water solubility assay (pH 7.8 buffer). It counts as physicochemical. Here is the method:
***Water Solubility Assay (Measured in pH 7.8 Buffer)
The onset of precipitation, if it occurred, was detected by an increase in absorbance at 650 nm.
Assay Buffer: 35 mM HEPES pH 7.8
Stock solutions of Control and Test Compounds: 10 mM in 100% DMSO
10 mM stock solutions of control and test compounds were prepared in 100% DMSO. A series of dilutions were prepared from the stock in DMSO so that the final concentrations in the assay were 0, 3.33, 10, 25, 50, 75 and 100 μM and DMSO was limited to 1%.
Assay buffer (247.5 μl) was placed into flat bottomed transparent 96-well plate. For blank samples DMSO (2.5 μl) was added. For test and control samples 2.5 μl of the appropriate DMSO dilution stocks were added to the appropriate well. All test and control compounds were performed in triplicate.
The plates were sealed with adhesive plate seal and shaken at 250 rpm at 25° C. for 18 h on a plate shaker.
After incubation the plate seals were taken off and any bubbles observed in wells removed. The plates were read on a SpectraMaxM5 with a 5 s pre-shake at 650 nm.
Data files were transferred to the appropriate worksheet and the solubility range of the compounds was calculated from the data.
The values shown in the tables indicate the concentration in μM (micromolar) at which the compound remains in solution.

The target of the next series is T1, cyclophilin A (Cyp A) (Homo sapiens, UniProt P62937).
T1 construct: purchased Sigma C3805
T1 sequence (P62937 whole entry): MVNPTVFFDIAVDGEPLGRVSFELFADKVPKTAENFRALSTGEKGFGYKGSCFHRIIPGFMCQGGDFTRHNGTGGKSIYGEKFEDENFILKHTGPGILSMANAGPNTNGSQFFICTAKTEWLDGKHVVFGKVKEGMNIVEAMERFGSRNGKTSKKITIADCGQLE
The series is described as follows: Protease-free PPIase assay, cyclophilin A. It counts as biochemical. The procedure:
as §1, with “ice. Human recombinant cyclophilin A (Cyp A) (Sigma C3805) enzyme was diluted to 1 μM with enzyme dilution buffer (20 mM HEPES pH 7.8, 40% glycerol, 50 μM DTT and 1 μM BSA) and stored at -20° C.” for “ice.”

≈ marks a conversion by molar mass, not a printed value. Like-named read-outs stand apart in the source and are kept apart here. Numbered stars: 1 amine (or outer) side, 2 acyl side, 3 side chain; on linkers, the order of the positions; unused ones are H or OH. Square brackets hold non-standard residues; d marks the D form. Peptide text beside a SMILES is read from it. X26 = C[C@H](C/C=C/c1cccc(N2CCOCC2)n1)[C@@H](O)[C@H](C(=O)[*:2])N(C)[*:1]; X22 = C[C@H](Cc1nc2ccccc2[nH]1)[C@@H](O)[C@H](C(=O)[*:2])N(C)[*:1]; X30 = C[C@H](CCN(C)Cc1nnn[nH]1)[C@@H](O)[C@H](C(=O)[*:2])N(C)[*:1]; X21 = C[C@H](CCN(C)C1CCOCC1)[C@@H](O)[C@H](C(=O)[*:2])N(C)[*:1]; X27 = C[C@H](CCN(C)c1ccccn1)[C@@H](O)[C@H](C(=O)[*:2])N(C)[*:1]; X34 = C[C@H](CCN1CCN(C)CC1)[C@@H](O)[C@H](C(=O)[*:2])N(C)[*:1]; X25 = CC(C)NCC[C@@H](C)[C@@H](O)[C@H](C(=O)[*:2])N(C)[*:1]; d(aThr) = C[C@@H](O)[C@@H](N)C(=O)O; NMeL = CN[C@@H](CC(C)C)C(=O)O; dNMeL = CN[C@H](CC(C)C)C(=O)O; dNMeV = CN[C@@H](C(=O)O)C(C)C; Hiv = CC(C)[C@H](O)C(=O)O; Sar = CNCC(=O)O Where only a bound is given, the exact number is not on record here.

cyclophilin D (Cyp D), sequence (P30405 30-207): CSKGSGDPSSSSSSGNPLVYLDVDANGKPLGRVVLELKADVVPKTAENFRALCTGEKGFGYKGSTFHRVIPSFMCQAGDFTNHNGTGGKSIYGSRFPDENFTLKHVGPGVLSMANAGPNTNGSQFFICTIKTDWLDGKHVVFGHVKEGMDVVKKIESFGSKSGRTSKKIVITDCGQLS

By Ki is commonly meant the equilibrium dissociation constant of an inhibitor or competing ligand from its target. In general, solubility refers to the concentration that dissolves in the medium under given conditions. As for `CC(C)C[C@@H]1C(=O)N[C@H](CC(C)C)C(=O)N(C)[C@H](C(C)C)C(=O)N(C)[C@H]([C@H](O)[C@H](C)C/C=C/c2cccc(N3CCOCC3)n2)C(=O)N[C@H]([C@@H](C)O)C(=O)N(C)CC(=O)N(C)[C@@H](CC(C)C)C(=O)N[C@H](CC(C)C)C(=O)N(C)[C@H](CC(C)C)C(=O)N[C@H](C)C(=O)O[C@@H](C(C)C)C(=O)N1C` [Example 18, cyclo-{(3R,4R,5S)-4-(hydroxy)-3-methyl-5-(methylamino)-1-(6-morpholin-4-yl-pyridin-2-yl)-hept-1-enoic acid-Thr-Sar-MeLeu-Leu-MeLeu-Ala-D-Hiv-MeLeu-Leu-MeVal}] (cyclo([Hiv][dNMeL][dL][dNMeV][X26][d(aThr)][Sar][NMeL][dL][dNMeL][dA])), the inhibition constant (Ki) was 1 to 25 nM on cyclophilin D (Cyp D) (protease-free PPIase assay, class symbols, read-out: CypD Ki) and 1 to 25 nM at cyclophilin A (Cyp A) (protease-free PPIase assay, class symbols, read-out: CypA Ki). In addition, the solubility at 18 h in series [1] (35 mM HEPES buffer, 35 mM HEPES pH 7.8, 1% DMSO, 25° C., 18 h, concentration at which compound remains in solution, read-out: Solubility) is 10 to 25 µM (≈ 14 to 34.9 µg/mL).

As for `CO[C@H](C)[C@H]1NC(=O)[C@@H]([C@H](O)[C@H](C)CCN2CCOCC2)N(C)C(=O)[C@@H](C(C)C)N(C)C(=O)[C@@H](CC(C)C)NC(=O)[C@@H](CC(C)C)N(C)C(=O)[C@H](C(C)C)OC(=O)[C@@H](C)NC(=O)[C@@H](CC(C)C)N(C)C(=O)[C@@H](CC(C)C)NC(=O)[C@H](CC(C)C)N(C)C(=O)CN(C)C1=O` (stereo in doubt) [Example 7, cyclo-[(3R,4R,5S)-4-(hydroxy)-3-methyl-5-(methylamino)-1-N-morpholino-hexanoic acid-(O-methyl-Thr)-Sar-MeLeu-Leu-MeLeu-Ala-D-Hiv-MeLeu-Leu-MeVal]], the results for the Ki at cyclophilin D (Cyp D) and at cyclophilin A (Cyp A) were 1 to 25 nM and 25 to 100 nM, respectively. The same compound showed a solubility at 18 h in series [1] (pH 7.8) of 50 to 75 µM (≈ 66 to 99.1 µg/mL).

For the compound `CC(C)C[C@@H]1C(=O)N[C@H](CC(C)C)C(=O)N(C)[C@H](C(C)C)C(=O)N(C)[C@H]([C@H](O)[C@H](C)CCN(C)Cc2nnn[nH]2)C(=O)N[C@H]([C@@H](C)O)C(=O)N(C)CC(=O)N(C)[C@@H](CC(C)C)C(=O)N[C@H](CC(C)C)C(=O)N(C)[C@H](CC(C)C)C(=O)N[C@H](C)C(=O)O[C@@H](C(C)C)C(=O)N1C` [Example 6, cyclo-{(3R,4R,5S)-4-(hydroxy)-3-methyl-5-(methylamino)-1-N-[methyl-(1H-tetrazol-5-ylmethyl)-amino]-hexanoic acid-Thr-Sar-MeLeu-Leu-MeLeu-Ala-D-Hiv-MeLeu-Leu-MeVal}] (cyclo([Hiv][dNMeL][dL][dNMeV][X30][d(aThr)][Sar][NMeL][dL][dNMeL][dA])), the Ki at cyclophilin D (Cyp D) and at cyclophilin A (Cyp A) was 1 to 25 nM in each case. The compound further had a solubility at 18 h in series [1] (pH 7.8) of 25 to 50 µM (≈ 33.3 to 66.6 µg/mL).

With `CC(C)C[C@@H]1C(=O)N[C@H](CC(C)C)C(=O)N(C)[C@H](C(C)C)C(=O)N(C)[C@H]([C@H](O)[C@H](C)Cc2nc3ccccc3[nH]2)C(=O)N[C@H]([C@@H](C)O)C(=O)N(C)CC(=O)N(C)[C@@H](CC(C)C)C(=O)N[C@H](CC(C)C)C(=O)N(C)[C@H](CC(C)C)C(=O)N[C@H](C)C(=O)O[C@@H](C(C)C)C(=O)N1C` [Example 33, cyclo-[(2R,3R,4S)-1-(1H-benzoimidazol-2-yl)-2-methyl-4-methylamino-3-hydroxy-pentanoic acid-Thr-Sar-MeLeu-Leu-MeLeu-Ala-D-Hiv-MeLeu-Leu-MeVal]] (cyclo([Hiv][dNMeL][dL][dNMeV][X22][d(aThr)][Sar][NMeL][dL][dNMeL][dA])), the inhibitory constant (Ki) at cyclophilin D (Cyp D) and at cyclophilin A (Cyp A) was 1 to 25 nM in each case. In series [1] (pH 7.8), this compound returned a solubility at 18 h of 25 to 50 µM (≈ 33.1 to 66.2 µg/mL).

Turning to `CC(C)C[C@@H]1C(=O)N[C@H](CC(C)C)C(=O)N(C)[C@H](C(C)C)C(=O)N(C)[C@H]([C@H](O)[C@H](C)CCN(C)C2CCOCC2)C(=O)N[C@H]([C@@H](C)O)C(=O)N(C)CC(=O)N(C)[C@@H](CC(C)C)C(=O)N[C@H](CC(C)C)C(=O)N(C)[C@H](CC(C)C)C(=O)N[C@H](C)C(=O)O[C@@H](C(C)C)C(=O)N1C` [Example 12, cyclo-{(3R,4R,5S)-4-(hydroxy)-3-methyl-5-(methylamino)-1-N-(methyl-(tetrahydro-pyran-4-yl)-amino)-hexanoic acid-Thr-Sar-MeLeu-Leu-MeLeu-Ala-D-Hiv-MeLeu-Leu-MeVal}] (cyclo([Hiv][dNMeL][dL][dNMeV][X21][d(aThr)][Sar][NMeL][dL][dNMeL][dA])), the Ki lay within 1 to 25 nM at cyclophilin D (Cyp D) and 25 to 100 nM at cyclophilin A (Cyp A). This compound also gave a solubility at 18 h in series [1] (pH 7.8) above 100 µM.

As for `CC(C)C[C@@H]1C(=O)N[C@H](CC(C)C)C(=O)N(C)[C@H](C(C)C)C(=O)N(C)[C@H]([C@H](O)[C@H](C)CCNC(C)C)C(=O)N[C@H]([C@@H](C)O)C(=O)N(C)CC(=O)N(C)[C@@H](CC(C)C)C(=O)N[C@H](CC(C)C)C(=O)N(C)[C@H](CC(C)C)C(=O)N[C@H](C)C(=O)O[C@@H](C(C)C)C(=O)N1C` [Example 37, cyclo-[(3R,4R,5S)-4-hydroxy-1-isopropylamino-3-methyl-5-methylamino-hexanoic acid-Thr-Sar-MeLeu-Leu-MeLeu-Ala-D-Hiv-MeLeu-Leu-MeVal]] (cyclo([Hiv][dNMeL][dL][dNMeV][X25][d(aThr)][Sar][NMeL][dL][dNMeL][dA])), the inhibitory constant (Ki) on cyclophilin D (Cyp D) was in the range of 1 to 25 nM; at cyclophilin A (Cyp A) it was 25 to 100 nM. The solubility at 18 h in series [1] (pH 7.8) was above 100 µM.

In the case of `CC(C)C[C@@H]1C(=O)N[C@H](CC(C)C)C(=O)N(C)[C@H](C(C)C)C(=O)N(C)[C@H]([C@H](O)[C@H](C)CCN(C)c2ccccn2)C(=O)N[C@H]([C@@H](C)O)C(=O)N(C)CC(=O)N(C)[C@@H](CC(C)C)C(=O)N[C@H](CC(C)C)C(=O)N(C)[C@H](CC(C)C)C(=O)N[C@H](C)C(=O)O[C@@H](C(C)C)C(=O)N1C` [Example 28, cyclo-[(3R,4R,5S)-4-(hydroxy)-3-methyl-5-(methylamino)-1-N-(methyl-pyridin-2-yl-amine)-hexanoic acid-Thr-Sar-MeLeu-Leu-MeLeu-Ala-D-Hiv-MeLeu-Leu-MeVal]] (cyclo([Hiv][dNMeL][dL][dNMeV][X27][d(aThr)][Sar][NMeL][dL][dNMeL][dA])), the Ki at cyclophilin D (Cyp D) and on cyclophilin A (Cyp A) was 1 to 25 nM each time. For the same compound, in series [1] (pH 7.8), the solubility at 18 h is 25 to 50 µM (≈ 33.2 to 66.4 µg/mL).

As for `CC(C)C[C@@H]1C(=O)N[C@H](CC(C)C)C(=O)N(C)[C@H](C(C)C)C(=O)N(C)[C@H]([C@H](O)[C@H](C)CCN2CCN(C)CC2)C(=O)N[C@H]([C@@H](C)O)C(=O)N(C)CC(=O)N(C)[C@@H](CC(C)C)C(=O)N[C@H](CC(C)C)C(=O)N(C)[C@H](CC(C)C)C(=O)N[C@H](C)C(=O)O[C@@H](C(C)C)C(=O)N1C` [Example 32, cyclo-[(3R,4R,5S)-4-(hydroxy)-3-methyl-5-(methylamino)-1-N—(N′-methylpiperazine)-hexanoic acid-Thr-Sar-MeLeu-Leu-MeLeu-Ala-D-Hiv-MeLeu-Leu-MeVal]] (cyclo([Hiv][dNMeL][dL][dNMeV][X34][d(aThr)][Sar][NMeL][dL][dNMeL][dA])), the inhibitory constant (Ki) is 25 to 100 nM at cyclophilin D (Cyp D) and 100 to 300 nM at cyclophilin A (Cyp A).
